This note sets out measurements from article PMC8278147, “Synthesis of New 1H-1,2,3-Triazole Analogs in Aqueous Medium via “Click” Chemistry: A Novel Class of Potential Carbonic Anhydrase-II Inhibitors” (Frontiers in Chemistry, 2021).

The target in this assay is T1, bovine carbonic anhydrase-II enzyme (Bos taurus, UniProt P00921).
T1 construct: In vitro experiment of bovine erythrocyte CA-II was conducted in HEPES-Tris buffer; from tissue; host or cells: bovine erythrocytes
The assay can be described thus: In vitro carbonic anhydrase-II inhibition assay (p-nitrophenylacetate substrate). In kind it is biochemical. Particulars: bovine erythrocyte CA-II, HEPES-Tris buffer pH 7.4, 25°C, substrate p-nitrophenylacetate 0.7 mM, triplicate.

T1 sequence (P00921 whole entry): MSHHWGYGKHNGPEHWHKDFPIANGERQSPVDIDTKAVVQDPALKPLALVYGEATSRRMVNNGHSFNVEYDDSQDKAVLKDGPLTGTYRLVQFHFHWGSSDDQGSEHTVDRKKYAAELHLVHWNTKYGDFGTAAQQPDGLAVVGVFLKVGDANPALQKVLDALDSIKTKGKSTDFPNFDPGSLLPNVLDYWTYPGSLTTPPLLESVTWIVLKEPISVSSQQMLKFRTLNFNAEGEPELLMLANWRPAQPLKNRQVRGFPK
Protocol: In vitro experiment of bovine erythrocyte CA-II was conducted in HEPES-Tris buffer (20 mM) to maintain the pH 7.4. The purified was dissolved in HEPES-Tris buffer (0.1 mg/ml), and the reaction mixture was comprised of 140 μL of the HEPES-Tris buffer, 20 μL of the enzyme, and 20 μL of test compound (prepared in DMSO) and was incubated for 15 min at 25°C. After completion of the preincubation, the reaction was started by adding instantly the substrate p-nitrophenylacetate (P-NPA) at a concentration of 0.7 mM and prepared in methanol. To initiate the reaction, the 96-well plate was placed in a microplate reader and continuous product formation was monitored with a one-minute time interval for 30 min at 400 nm. The assay temperature was strictly controlled and kept at 25°C. All the reaction was conducted in triplicate, and the results are presented as mean.

Compound `COc1cc(Br)ccc1O[C@H](C)Cn1cc(-c2ccc(N)cc2)nn1` [Compound 7b, (R)-4-(1-(2-(4-Bromo-2-methoxyphenoxy)propyl)-1H-1,2,3-triazol-4-yl)aniline] came in with an IC50 of 13.8 ± 0.63 µM.
